Test systems include UACC-257 melanoma; KM20L2 colon; CCRF-CEM leukemia; A549 NSCLC; HOP-92 NSCLC; KM12 colon; MOLT-4 leukemia; OVCAR-4 ovarian; U251 CNS; MDA-MB-231 breast.
Common to all, as to assay: NCI-60 cell line screen, 48 h

Several values for one entry are separate records, joined by “and”; a condition that tells them apart may be missing. Equal values may be shown once.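 Interpolation was linear, between the two tested concentrations surrounding the appropriate level; five concentrations were tested over 48 hours in 96-well plates. At the GI50, growth is halved. At the TGI there is no net growth.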

Among the data in PubChem BioAssay (NCI) are TGI and GI50 values, retold here.

As to `CSCSCC(CO)NC(=O)/C=C\c1c(C)[nH]c(=O)[nH]c1=O` (configuration not stated), the TGI was determined as 208 µM in the assay on UACC-257 melanoma; 129 µM in the assay on KM20L2 colon; 37.4 µM in the assay on CCRF-CEM leukemia; 375 µM with A549 NSCLC; 10.1 µM with HOP-92 NSCLC; 156 µM in the assay with KM12 colon. Besides, the TGI in the assay on MOLT-4 leukemia amounted to 59.1 µM; in the assay on OVCAR-4 ovarian, 13.4 µM; in the assay on U251 CNS it was 201 µM. Further, the GI50 in the assay on KM12 colon was 10.8 µM.
Take `O=C(O)C12C=CC(C1)c1ccccc12` (configuration not stated): the TGI in the assay with UACC-257 melanoma, in the assay with KM20L2 colon, in the assay with CCRF-CEM leukemia, in the assay on A549 NSCLC, in the assay with HOP-92 NSCLC and with MOLT-4 leukemia was greater than 100 µM each time. The TGI in the assay with OVCAR-4 ovarian and with U251 CNS was greater than 100 µM in each case.
`CCCCn1c(-c2ccccc2)cs/c1=N\NC(=O)Cn1c(C)nc2ccccc21`: the TGI in the assay with UACC-257 melanoma is greater than 100 µM; in the assay on KM20L2 colon it was greater than 100 µM; with CCRF-CEM leukemia, 99.4 µM; in the assay with A549 NSCLC, greater than 100 µM; in the assay with KM12 colon, greater than 100 µM; with MOLT-4 leukemia, 57.4 µM. For the same molecule, the TGI with OVCAR-4 ovarian and in the assay on U251 CNS was greater than 100 µM in each case.
As for `Cc1c2cc[n+](C)cc2c(C)c2c1[nH]c1ccc(OCC(F)(F)F)cc12`, the GI50 with UACC-257 melanoma is 4.02 µM and 14.8 µM. The TGI with UACC-257 melanoma was 20 µM and > 100 µM; in the assay with KM20L2 colon, greater than 100 µM; in the assay with CCRF-CEM leukemia, greater than 100 µM; in the assay on A549 NSCLC, greater than 100 µM; in the assay with HOP-92 NSCLC, 8.98 µM and > 28.5 µM; in the assay on KM12 colon it was greater than 44.8 µM. Further, the TGI was 11.1 µM and > 55.9 µM in the assay on MOLT-4 leukemia; greater than 100 µM with OVCAR-4 ovarian; 1.49 µM in the assay on U251 CNS.
For `C/C(N=NS(=O)(=O)c1c(C)cc(C)cc1C)=C1\C=CC=CN1O`, the TGI in the assay on UACC-257 melanoma, in the assay with KM20L2 colon, with CCRF-CEM leukemia, in the assay on A549 NSCLC, with HOP-92 NSCLC and with KM12 colon was greater than 100 µM in each case. The TGI with MOLT-4 leukemia, with OVCAR-4 ovarian and in the assay on U251 CNS was greater than 100 µM throughout.
Consider `C=C1C(=O)OC2C[C@@]3(C)CCCC(=C)C3CC12` (some centres not stated), for which the TGI with UACC-257 melanoma is 22 µM; in the assay with KM20L2 colon, 25.9 µM; in the assay on CCRF-CEM leukemia it was greater than 100 µM; with A549 NSCLC it was 27.7 µM; in the assay with HOP-92 NSCLC, 14.6 µM; in the assay with KM12 colon it was 5.94 µM. Further, the TGI in the assay with OVCAR-4 ovarian turned out to be 26.6 µM; in the assay with U251 CNS, 21.7 µM.
As for `NCCCNCCSP(=O)(O)O`, the TGI in the assay with UACC-257 melanoma, in the assay on KM20L2 colon, in the assay with CCRF-CEM leukemia, in the assay with A549 NSCLC, in the assay with HOP-92 NSCLC and in the assay with KM12 colon was greater than 750 µM in each case. In addition, the TGI in the assay on MOLT-4 leukemia, with OVCAR-4 ovarian and in the assay with U251 CNS was greater than 750 µM in each case.
On to `O=Cn1c2ccccc2c2ccccc21`, for which the TGI in the assay with UACC-257 melanoma, with KM20L2 colon, in the assay on CCRF-CEM leukemia, in the assay on A549 NSCLC, in the assay with HOP-92 NSCLC and in the assay with KM12 colon was greater than 100 µM each time. Besides, the TGI in the assay with MOLT-4 leukemia and in the assay on U251 CNS was greater than 100 µM in each case.
Turning to `CCN(CC)CC[n+]1ccc2c(C)c3[nH]c4ccccc4c3c(C)c2c1`, the GI50 with UACC-257 melanoma was 0.633 µM; in the assay on KM20L2 colon it was 0.27 µM and 0.782 µM; in the assay with CCRF-CEM leukemia it was 0.245 µM and 0.0957 µM; in the assay with A549 NSCLC it was 0.466 µM and 0.498 µM and 0.951 µM; with HOP-92 NSCLC it was 0.342 µM and 0.833 µM and 0.242 µM; in the assay on MOLT-4 leukemia it was 0.274 µM. In addition, the GI50 is 0.192 µM and 0.799 µM and 0.0865 µM with OVCAR-4 ovarian; 0.25 µM in the assay with U251 CNS. Besides, the TGI with UACC-257 melanoma is 2.07 µM and 2.59 µM and 1.99 µM; in the assay with KM20L2 colon, 1.51 µM and 6.24 µM; in the assay on CCRF-CEM leukemia it was 4.33 µM and 2.1 µM and 2.27 µM; in the assay with A549 NSCLC it was 5.22 µM and 5.45 µM and 8.14 µM; in the assay on HOP-92 NSCLC, 1.94 µM and 4.34 µM and 2.71 µM; with MDA-MB-231 breast it was 2.93 µM. Besides, the TGI in the assay with KM12 colon is 2.39 µM and 1.45 µM and 2.76 µM; in the assay on MOLT-4 leukemia, 1.59 µM and 6.02 µM and 3.27 µM; with OVCAR-4 ovarian, 1.2 µM and 4.27 µM and 0.483 µM; with U251 CNS, 1.3 µM and 5.1 µM and 1.63 µM.
Take `c1ccc(C2N=C(c3ccccn3)C(c3ccccn3)=NC2c2ccccc2)cc1` (configuration not stated): the TGI with UACC-257 melanoma, with KM20L2 colon, in the assay on CCRF-CEM leukemia, with A549 NSCLC, in the assay on HOP-92 NSCLC and in the assay on KM12 colon was greater than 100 µM throughout. Moreover, the TGI with MOLT-4 leukemia, with OVCAR-4 ovarian and in the assay with U251 CNS was greater than 100 µM throughout.
As for `CC(C)=CC(=O)OC1C2C(C)=CC(=O)C(O)C2(C)C2C3(O)OCC24C(CC(=O)OC14)C(C)C3O` (configuration not stated), the GI50 in the assay with UACC-257 melanoma is 0.02 µM; with CCRF-CEM leukemia it was 0.02 µM; in the assay on A549 NSCLC, 0.0545 µM and 0.178 µM; with HOP-92 NSCLC it was 0.0207 µM; with KM12 colon, 0.0209 µM; in the assay on MOLT-4 leukemia, 0.02 µM. The GI50 in the assay with OVCAR-4 ovarian and in the assay on U251 CNS was 0.02 µM in each case. Moreover, the TGI in the assay on UACC-257 melanoma was 0.0436 µM and 0.0432 µM; with KM20L2 colon, 0.197 µM and 0.153 µM; with CCRF-CEM leukemia, 0.109 µM and 0.177 µM and 0.253 µM; in the assay with A549 NSCLC, 0.598 µM and 1.55 µM and 2.22 µM; with HOP-92 NSCLC, 0.0465 µM and 0.0367 µM; in the assay with MDA-MB-231 breast it was 0.0596 µM and 0.0264 µM. Besides, in the assay on U251 CNS, the TGI is 0.0192 µM and 0.0314 µM.
Turning to `COC(=O)c1c(CC(=O)OC(C)C)cc2n(c1=O)Cc1c-2nc2ccccc2c1OC`, the TGI with UACC-257 melanoma, with KM20L2 colon, in the assay on CCRF-CEM leukemia, with A549 NSCLC, in the assay on HOP-92 NSCLC and in the assay with MOLT-4 leukemia was greater than 100 µM throughout. Moreover, the TGI in the assay on OVCAR-4 ovarian and in the assay with U251 CNS was greater than 100 µM throughout.
As to `CC(C)(C)OC(=O)NCC(c1c[nH]c2ccccc12)c1c[nH]c2ccccc12`, the TGI with UACC-257 melanoma turned out to be 28.6 µM; with CCRF-CEM leukemia, 44.7 µM; with A549 NSCLC, 29.2 µM; with HOP-92 NSCLC, 27.5 µM; in the assay with MDA-MB-231 breast, 31.9 µM; in the assay on KM12 colon, 28.6 µM. Also, the TGI with MOLT-4 leukemia is 29.9 µM; with OVCAR-4 ovarian it was 26.5 µM; with U251 CNS, 29.8 µM.
As to `Cc1cc2ccccc2oc(=O)/c1=N\Nc1ccccc1`, the TGI in the assay with UACC-257 melanoma is greater than 100 µM; with CCRF-CEM leukemia, greater than 100 µM; in the assay with A549 NSCLC, greater than 100 µM; in the assay on HOP-92 NSCLC it was greater than 100 µM; with MDA-MB-231 breast, 77.9 µM; in the assay with KM12 colon it was greater than 100 µM. Also, the TGI in the assay on MOLT-4 leukemia, in the assay with OVCAR-4 ovarian and in the assay with U251 CNS was greater than 100 µM throughout.
For the molecule `CCOC(=O)c1c(SC(=O)c2ccc(Cl)cc2)n(-c2ccccc2)c(=S)n(-c2ccccc2)c1=O`, the TGI in the assay with UACC-257 melanoma, in the assay with CCRF-CEM leukemia, in the assay on A549 NSCLC, in the assay on HOP-92 NSCLC, in the assay with MDA-MB-231 breast and in the assay with KM12 colon was greater than 100 µM in each case. For the same molecule, the TGI in the assay on MOLT-4 leukemia, in the assay with OVCAR-4 ovarian and in the assay on U251 CNS was greater than 100 µM in each case.
